IC50 and MIC data for 22 compounds are collected here from patent US6821980B1, “Substituted 5-benzyl-2,4-diaminopyrimidines” (Basilea Pharmaceutica AG, priority 1999, dated 2004).

pIC50: −log10 of the molar value. In brackets after ≈: the same amount, converted by molar mass. Like-named read-outs stand apart in the source and are kept apart here.

In assay [1] the target is purified DHFR of strain 157/4696 of Staphylococcus aureus (Staphylococcus aureus, UniProt P13955). Description: biochemical.
For assay [2], the system named is Streptococcus pneumoniae 1/1. As to the kind of experiment: MIC against Streptococcus pneumoniae 1/1. It is filed as cell-based. The following applies: Streptococcus pneumoniae 1/1, trimethoprim- and penicillin-resistant, serotype 6, clinical isolate, read-out: MIC Sp1/1.
Assay [3] concerns Staphylococcus aureus 101. Description: MIC against Staphylococcus aureus 101. It counts as cell-based. The following applies: Staphylococcus aureus 101, MRSA- and trimethoprim-resistant, clinical isolate, read-out: MIC Sa101.
Assay [4] deals with T1, purified DHFR of strain Sp1/1 of Streptococcus pneumoniae (Streptococcus pneumoniae serotype 4, UniProt Q54801).
T1 sequence (Q54801 1-168 I100L): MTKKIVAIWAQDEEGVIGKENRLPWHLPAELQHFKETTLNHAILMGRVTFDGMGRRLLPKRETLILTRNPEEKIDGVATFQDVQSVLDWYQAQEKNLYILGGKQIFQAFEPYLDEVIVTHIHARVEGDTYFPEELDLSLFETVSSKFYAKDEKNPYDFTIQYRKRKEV
It counts as biochemical. The following applies: IC50 against purified DHFR of strain Sp1/1.

Sequence of purified DHFR of strain 157/4696 of Staphylococcus aureus (P13955 whole entry): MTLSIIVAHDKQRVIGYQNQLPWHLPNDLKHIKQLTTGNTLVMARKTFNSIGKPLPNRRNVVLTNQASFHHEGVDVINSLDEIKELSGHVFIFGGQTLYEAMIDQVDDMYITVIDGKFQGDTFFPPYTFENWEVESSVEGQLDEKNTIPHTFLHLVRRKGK

Regarding `CCOc1cc(Cc2cnc(N)nc2N)cc(OS(=O)(=O)N2CCCC2)c1-c1ccc(O)cc1` [Example 20-c, Pyrrolidine-1-sulrbonic acid 4-(2,4-diamino-pyrimidin-5-ylmethyl)-6-ethoxy-4′-hydroxy-biphenyl-2-yl ester], the negative logarithm of the IC50 (pIC50) in assay [1] was 6.74; in assay [4] (Table 2), 8.09. Also, the MIC in assay [2] (Table 2) came out at 1 µg/mL (≈ 2.06 µM); in assay [3] (Table 2), 4 µg/mL (≈ 8.24 µM).

Take `CCOc1cc(Cc2cnc(N)nc2N)cc(OS(=O)(=O)N2CCOCC2)c1-c1ccc(O)cc1` [Example 20-d, Morpholine-4-sulphonic acid 4-(2,4-diamino-pyrimidin-5-ylmethyl)-6-ethoxy-4′-hydroxy-biphenyl-2-yl ester]: the pIC50 in assay [1] was 7.02; in assay [4] (Table 2), 8.24. In addition, the MIC in assay [2] (Table 2) came out at 1 µg/mL (≈ 1.99 µM); in assay [3] (Table 2), 8 µg/mL (≈ 16 µM).

Turning to `CCOc1cc(Cc2cnc(N)nc2N)cc(OS(=O)(=O)N(C)C(C)C)c1-c1ccc(O)cc1` [Example 20-e, N-Isopropyl-N-methyl-sulphamic acid 4-(2,4-diamino-pvrimidin-5-ylmethyl)-6-ethoxy-4′-hydroxy-biphenyl-2-yl ester], the pIC50 in assay [1] was 6.80; in assay [4] (Table 2) it was 7.85. The MIC in assay [2] (Table 2) and in assay [3] (Table 2) was 2 µg/mL (≈ 4.1 µM) in each case.

Consider `CCOc1cc(Cc2cnc(N)nc2N)cc(OS(=O)(=O)N(C)C2CC2)c1-c1ccc(O)cc1` [Example 20-f, N-Cyclopropld-N-methyl-sulphamic acid 4-(2,4-diamino-pyrimidin-5-ylmethyl)-6-ethoxy-4′-hydroxy-biphenyl-2-yl ester], for which the pIC50 is 6.85 in assay [1] and 8.01 in assay [4] (Table 2). Further, the MIC in assay [2] (Table 2) and in assay [3] (Table 2) was 1 µg/mL (≈ 2.06 µM) in each case.

As to `CCOc1cc(Cc2cnc(N)nc2N)cc(OS(=O)(=O)N(C)CC)c1-c1ccc(O)cc1` [Example 20-g, N-Ethyl-N-methyl-sulphamic acid 4-(2,4-diamino-pyrimidin-5-ylmethyl)-6-ethoxy-4′-hydroxy-biphenyl-2-yl ester], the pIC50 in assay [1] is 6.80; in assay [4] (Table 2) it was 8.14. Besides, the MIC turned out to be 1 µg/mL (≈ 2.11 µM) in assay [2] (Table 2) and 2 µg/mL (≈ 4.22 µM) in assay [3] (Table 2).

As to `CCOc1cc(Cc2cnc(N)nc2N)cc(OS(=O)(=O)N(CC)CC)c1-c1ccc(O)cc1` [Example 20-h, Diethyl-sulphamic acid 4-(2,4-diamino-pyrimidin-5-ylmethyl)-6-ethoxy-4′-hydroxy-biphenyl-2-yl ester], the pIC50 was 6.46 in assay [1] and 8.04 in assay [4] (Table 2). Further, the MIC in assay [2] (Table 2) was found to be 1 µg/mL (≈ 2.05 µM); in assay [3] (Table 2), 2 µg/mL (≈ 4.1 µM).

In the case of `CCOc1cc(Cc2cnc(N)nc2N)cc(OS(=O)(=O)N(C)C)c1-c1ccc(OC)cc1` [Example 21-, Dimethylsulphamic acid 4-(2,4-diamino-pyrimidin-5-ylmethyl)-6-ethoxy-4′-methoxy-biphenyl-2-yl ester], the pIC50 in assay [1] is 6.89; in assay [4] (Table 2) it was 7.28. For the same compound, the MIC in assay [2] (Table 2) and in assay [3] (Table 2) was 2 µg/mL (≈ 4.22 µM) throughout.

Regarding `CCOc1cc(Cc2cnc(N)nc2N)cc(OS(=O)(=O)N(C)C)c1-c1ccc(N)cc1` [Example 22-a, Dimethylsulphamic acid 4′-amino-4-(2,4-diamino-pyrimidin-5-ylmethyl)-6-ethoxy-biphenyl-2-yl ester], the pIC50 in assay [1] was 7.32; in assay [4] (Table 2), 8.51. Moreover, the MIC in assay [2] (Table 2) stood at 1 µg/mL (≈ 2.18 µM); in assay [3] (Table 2), 2 µg/mL (≈ 4.36 µM).

In the case of `CCOc1cc(Cc2cnc(N)nc2N)cc(OS(=O)(=O)N(C)CC)c1-c1ccc(N)cc1` [Example 22-b, N-Ethyl-N-methyl-sulphamic acid 4′-amino-4-(2,4-diamino-pyrimidin-5-ylmethyl)-6-ethoxy-biphenyl-2-yl ester], the pIC50 in assay [1] is 7.42; in assay [4] (Table 2) it was 8.64. Also, the MIC in assay [2] (Table 2) and in assay [3] (Table 2) was 1 µg/mL (≈ 2.12 µM) throughout.

Take `CCOc1cc(Cc2cnc(N)nc2N)cc(OS(=O)(=O)N2CCCC2)c1-c1ccc(N)cc1` [Example 22-c, Pyrrolidine-1-sulphonic acid 4′-amino-4-(2,4-diamino-Ryrimidin-5-ylmethyl)-6-ethoxy-biphenyl-2-yl ester]: the figures for the pIC50 in assay [1] and in assay [4] (Table 2) were 6.85 and 8.48, respectively. In addition, the MIC in assay [2] (Table 2) and in assay [3] (Table 2) was 1 µg/mL (≈ 2.06 µM) in each case.

For `CCOc1cc(Cc2cnc(N)nc2N)cc(OS(=O)(=O)N2CCOCC2)c1-c1ccc(N)cc1` [Example 22-d, Morpholine-4-sulphonic acid 4′-amino-4-(2,4-diamino-pyrimidin-5-ylmethyl)-6-ethoxy-biphenyl-2-yl ester], the negative-log IC50 (pIC50) in assay [1] is 7.35; in assay [4] (Table 2), 8.21. Further, the values for the MIC in assay [2] (Table 2) and in assay [3] (Table 2) were 1 µg/mL (≈ 2 µM) and 2 µg/mL (≈ 4 µM), respectively.

Consider `CCOc1cc(Cc2cnc(N)nc2N)cc(OS(=O)(=O)N(CC)CC)c1-c1ccc(N)cc1` [Example 22-f, Diethylsulphamic acid 4′-amino-4-(2,4-diamino-pyrimidin-5-ylmethyl)-6-ethoxy-biphenyl-2-yl ester], for which the pIC50 in assay [1] was 6.82; in assay [4] (Table 2), 7.85. Also, the MIC in assay [2] (Table 2) was 1 µg/mL (≈ 2.06 µM); in assay [3] (Table 2) it was 2 µg/mL (≈ 4.11 µM).

Turning to `CCOc1cc(Cc2cnc(N)nc2N)cc(OS(=O)(=O)N(C)C2CC2)c1-c1ccc(N)cc1` [Example 22e, N-Cyclopropyl-N-methyl-sulphamic acid 4′-amino-4-(2,4-diamino-pyrimidin-5-ylmethyl)-6-ethoxy-biphenyl-2-yl ester], the figures for the pIC50 in assay [1] and in assay [4] (Table 1) were 6.82 and 7.89, respectively. The MIC was 1 µg/mL (≈ 2.06 µM) in assay [2] (Table 1) and 2 µg/mL (≈ 4.13 µM) in assay [3] (Table 1).

For the compound `CCOc1cc(Cc2cnc(N)nc2N)cc(OCC2CC2)c1-c1ccc(CN2CCOCC2)s1` [Example 23-, 5-[3-Cyclopropylmethoxy-5-ethoxy-4-(5-morpholin-4-ylmethyl-thiophen-2-yl)-benzyl]-pyrimidine-2,4-diamine], the pIC50 in assay [1] was 5.59; in assay [4] (Table 2) it was 8.10. Besides, the MIC in assay [2] (Table 2) was determined as 1 µg/mL (≈ 2.02 µM); in assay [3] (Table 2) it was 8 µg/mL (≈ 16.1 µM).

Take `CCOc1cc(Cc2cnc(N)nc2N)cc(OS(=O)(=O)C2CC2)c1-c1ccc(CN2CCOCC2)s1` [Example 24-, Cyclopropanesulphonic acid 5-(2,4-diamino-pyrimidin-5-ylmethyl)-3-ethoxy-2-(5-morpholin-4-ylmethyl-thiophen-2-yl)-phenyl ester]: the results for the pIC50 in assay [1] and in assay [4] (Table 2) were 6.72 and 7.80, respectively. Moreover, the MIC in assay [2] (Table 2) is 1 µg/mL (≈ 1.83 µM); in assay [3] (Table 2) it was 4 µg/mL (≈ 7.33 µM).

With `CCOc1cc(Cc2cnc(N)nc2N)cc(OS(=O)(=O)N(C)C)c1-c1ccc(NC)cc1` [Example 26-a, Dimethylsulphamic acid 4-(2,4-diamino-pyrimidin-5-ylmethyl)-6-ethoxy-4′-methylamino-biphenyl-2-yl ester], the pIC50 in assay [1] is 6.89; in assay [4] (Table 2) it was 8.68. Besides, the MIC in assay [2] (Table 2) and in assay [3] (Table 2) was 1 µg/mL (≈ 2.12 µM) throughout.

For `CCOc1cc(Cc2cnc(N)nc2N)cc(OS(=O)(=O)N(C)CC)c1-c1ccc(NC)cc1` [Example 26-b, N-Ethyl-N-methyl-sulphamic acid 4-(2,4-diamino-pvrimidin-5-ylmethyl)-6-ethoxy-4′-methylamino-biphenyl-2-yl ester], the pIC50 was 6.77 in assay [1] and 8.72 in assay [4] (Table 2). For the same compound, the MIC in assay [2] (Table 2) and in assay [3] (Table 2) was 1 µg/mL (≈ 2.06 µM) each time.

Take `CCOc1cc(Cc2cnc(N)nc2N)cc(OS(=O)(=O)N(C)C2CC2)c1-c1ccc(NC)cc1` [Example 26-d, N-Cyclopropyl-N-methyl-sulphamic acid 4-(2,4-diamino-pyrimidin-5-ylmethyl)-6-ethoxy-4′-methylamino-biphenyl-2-yl ester]: the negative logarithm of the IC50 (pIC50) in assay [1] was 6.85; in assay [4] (Table 2), 8.29. Also, the MIC in assay [2] (Table 2) and in assay [3] (Table 2) was 1 µg/mL (≈ 2.01 µM) throughout.

On to `CCOc1cc(Cc2cnc(N)nc2N)cc(OS(=O)(=O)N2CCCC2)c1-c1ccc(NC)cc1` [Example 26-e, Pyrrolidine-1-sulphonic acid 4-(2,4-diamino-pyrimidin-5-ylmethyl)-6-ethoxy-4′-methylamino-biphenyl-2-yl ester], for which the pIC50 in assay [1] was 6.89; in assay [4] (Table 2) it was 8.64. Besides, the MIC in assay [2] (Table 2) and in assay [3] (Table 2) was 1 µg/mL (≈ 2.01 µM) in each case.

As to `CCOc1cc(Cc2cnc(N)nc2N)cc(OS(=O)(=O)N(CC)CC)c1-c1ccc(NC)cc1` [Example 26-f, Diethylsulphamic acid 4-(2,4-diamino-pyrimidin-5-ylmethyl)-6-ethoxy-4′-methylamino-biphenyl-2-yl ester], the pIC50 was 6.64 in assay [1] and 8.06 in assay [4] (Table 2). The MIC in assay [2] (Table 2) came to 1 µg/mL (≈ 2 µM); in assay [3] (Table 2), 2 µg/mL (≈ 4 µM).

For `CCOc1cc(Cc2cnc(N)nc2N)cc(OS(=O)(=O)N2CCOCC2)c1-c1ccc(NC)cc1` [Example 26c, Morpholine-4-sulphonic acid 4-(2,4-diamino-pyrimidin-5-ylmethyl)-6-ethoxy-4′-methylamino-biphenyl-2-yl ester], the results for the pIC50 in assay [1] and in assay [4] (Table 1) were 7.25 and 8.49, respectively. Further, the MIC was 0.5 µg/mL (≈ 0.972 µM) in assay [2] (Table 1) and 1 µg/mL (≈ 1.94 µM) in assay [3] (Table 1).

Turning to `CCOc1cc(Cc2cnc(N)nc2N)cc(OS(=O)(=O)N(C)C)c1-c1ccc(N)c(C)c1` [Example 27-a, Dimethylsulphamic acid 4′-amino-4-(2,4-diamino-pyrimidin-5-ylmethyl)-6-ethoxy-3′-methyl-biphenyl-2-yl ester], the results for the pIC50 in assay [1] and in assay [4] (Table 2) were 6.66 and 7.66, respectively. Besides, the figures for the MIC in assay [2] (Table 2) and in assay [3] (Table 2) were 1 µg/mL (≈ 2.12 µM) and 2 µg/mL (≈ 4.23 µM), respectively.
